“Also recorded” adds a separate entry of the source. Where a SMILES comes first, the peptide text is derived from it. Bridges are numbered along the chain shown (N, C = ends). [ ]: non-standard residue; d: D form. AEEA = NCCOCCOCC(=O)O
Key:
fibrin clot = molecular target: T1, fibrin clot (Homo sapiens, UniProt P02671+P02675+P02679); experiment: Plasma matrix interference on probe binding to fibrin clots; conditions: 20 µCi probe, 0.1 M PBS diluted 50% with fresh frozen human plasma, 0.5 mL, 37 °C, 30 min, triplicate
T1 sequence (P02671 20-644 isoform P02671-2 limits assumed): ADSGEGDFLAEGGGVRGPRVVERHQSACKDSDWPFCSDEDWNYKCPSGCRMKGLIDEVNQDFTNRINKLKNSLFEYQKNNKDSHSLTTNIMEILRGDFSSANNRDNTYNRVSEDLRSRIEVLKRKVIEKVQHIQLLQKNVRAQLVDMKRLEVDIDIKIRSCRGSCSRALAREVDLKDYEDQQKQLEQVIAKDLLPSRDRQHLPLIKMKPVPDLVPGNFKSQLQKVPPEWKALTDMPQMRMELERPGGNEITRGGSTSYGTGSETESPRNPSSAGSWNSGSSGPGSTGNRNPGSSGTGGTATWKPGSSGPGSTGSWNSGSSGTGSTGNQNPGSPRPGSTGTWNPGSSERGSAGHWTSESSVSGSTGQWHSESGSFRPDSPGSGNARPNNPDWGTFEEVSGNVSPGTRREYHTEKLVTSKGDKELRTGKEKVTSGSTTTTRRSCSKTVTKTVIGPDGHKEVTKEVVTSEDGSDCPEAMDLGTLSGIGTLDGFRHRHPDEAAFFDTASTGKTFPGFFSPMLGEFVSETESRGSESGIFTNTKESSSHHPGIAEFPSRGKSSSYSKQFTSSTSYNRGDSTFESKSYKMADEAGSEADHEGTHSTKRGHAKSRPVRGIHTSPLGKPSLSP
T1 sequence (P02675 45-491 limits assumed): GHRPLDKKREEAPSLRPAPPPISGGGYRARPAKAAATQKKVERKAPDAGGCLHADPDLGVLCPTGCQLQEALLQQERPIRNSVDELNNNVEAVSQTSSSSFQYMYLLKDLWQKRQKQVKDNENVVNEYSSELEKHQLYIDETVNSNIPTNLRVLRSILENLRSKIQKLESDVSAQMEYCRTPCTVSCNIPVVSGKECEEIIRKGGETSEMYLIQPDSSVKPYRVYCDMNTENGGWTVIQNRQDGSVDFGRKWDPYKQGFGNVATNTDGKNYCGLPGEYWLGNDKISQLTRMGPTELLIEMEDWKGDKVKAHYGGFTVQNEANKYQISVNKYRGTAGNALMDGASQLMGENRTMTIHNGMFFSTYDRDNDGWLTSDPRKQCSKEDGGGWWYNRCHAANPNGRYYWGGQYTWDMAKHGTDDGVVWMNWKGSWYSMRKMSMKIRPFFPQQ
T1 sequence (P02679 27-437 isoform P02679-2 limits assumed): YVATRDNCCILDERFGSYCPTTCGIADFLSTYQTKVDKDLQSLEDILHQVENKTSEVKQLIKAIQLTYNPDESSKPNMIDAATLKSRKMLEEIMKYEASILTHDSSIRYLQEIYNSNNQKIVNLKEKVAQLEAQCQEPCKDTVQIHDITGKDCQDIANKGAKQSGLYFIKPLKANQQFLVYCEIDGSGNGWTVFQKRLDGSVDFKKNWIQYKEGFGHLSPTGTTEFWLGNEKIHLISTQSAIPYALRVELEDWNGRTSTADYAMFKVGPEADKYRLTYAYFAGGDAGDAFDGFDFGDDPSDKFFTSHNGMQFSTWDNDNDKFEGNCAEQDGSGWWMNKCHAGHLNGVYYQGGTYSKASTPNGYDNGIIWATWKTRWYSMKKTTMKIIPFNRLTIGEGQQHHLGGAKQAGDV

[1] = Organ biodistribution in mice at 180 min; type: in vivo; conditions: 180 min after tail vein injection, n=3/treatment

**Q.** With `CC[C@H](C)[C@H](NC(=O)[C@H](Cc1c[nH]c2ccccc12)NC(=O)[C@@H]1CSSC[C@H](NC(=O)[C@H](CCC(=O)O)NC(=O)[C@H](Cc2c[nH]c3ccccc23)NC(=O)[C@H](CCC(N)=O)NC(=O)COCCOCCNC(=O)[C@H](CCC(=O)O)NC(=O)[C@H](Cc2c[nH]cn2)NC(=O)[C@@H](N)Cc2c[nH]cn2)C(=O)N2CCC[C@H]2C(=O)N[C@@H](Cc2ccc(O)cc2)C(=O)NCC(=O)N[C@@H](CC(C)C)C(=O)N1)C(=O)N[C@@H](CCC(N)=O)C(=O)O` [^99mTc-F1A, metal not drawn] (H-HHE[AEEA]QWECPYGLCWIQ-OH; disulfide 8-13) as the compound, how does the “binding to fibrin clots in the presence of human plasma compared with PBS alone” value (fibrin clot) read?
**A.** The value was “interfered; also recorded: dramatically reduced; also recorded: severely compromised”.

**Q.** What about the “organ accumulation (lung, liver, spleen)” value [1] of the same compound?
**A.** Its value is “negligible liver or spleen biodistribution; also recorded: neither probe accumulating substantially in the lung, liver or spleen”.
